Values joined by “and” are separate entries in the source; they are usually repeats but may differ in a detail not shown here. Equal values may be shown once. “Also recorded” adds a separate entry of the source.
Key:
[1] = test system: bitches suffering from urinary incontinence after spaying; test: GnRH analogue slow release implant in bitches with urinary incontinence after spaying; format: in vivo, dog; conditions: for Side effects: dash = none
Description: Additionally, for a limited period the dogs were treated with phenylpropanolamine in a dosage of 1.5 mg/kg BW tid orally.
After discontinuation of the shortacting phenylpropanolamine 8 bitches remained continent. Their continence was therefore achieved solely by the treatment with the composition as described in the present invention. Seven out of fifteen dogs seemed to be much happier and in none of the dogs did the general condition deteriorate. […] The respective results are shown in more detail in table 1.

[2] = test system: client owned dogs suffering from urinary incontinence; test: double-blind, placebo-control study of long-acting GnRH analogue in incontinent dogs; format: in vivo, dog
Description: In a second ongoing study, 16 client owned dogs suffering from urinary incontinence were enrolled in a double-blind, placebo-control study. In the initial phase of the study, dogs were randomly assigned to treatment with a long-acting GnRH analogue (leuprolide acetate) or placebo (dog owners and the investigators were blinded to treatment) along with a short course of therapy with phenylpropanolamine. 5 weeks after treatment with drug or placebo, dogs were evaluated and, if not fully continent, treated with a long-acting GnRH analogue (leuprolide acetate) in an open label phase of the study. To date only 1 of 10 dogs treated with placebo became continent vs. […] treated with drug during the blinded portion of the study. Overall, the results generated thus far indicate […] dogs treated with the long-acting GnRH analogue became continent and […] improved after discontinuation of the short acting phenylpropanolamine. Only 1 dog of 15 treated with the GnRH analogue was considered not to have improved following treatment with the drug.

[3] = test system: menopausal person suffering from stress incontinence; test: 24 hour pad test in a menopausal person with stress incontinence; format: in vivo, human; conditions: single dose of 3.75 mg; 2 weeks after treatment; before treatment 10 to 130 ml daily
Description: A second menopausal person, suffering from stress incontinence for at least 6 years, was treated with a single dose of 3.75 mg of leuprolide acetate. 24 hour pad tests conducted prior to treatment with the drug indicated they lost between 10 and 130 ml of urine on a daily basis due to their incontinence.

[4] = test system: cocker spaniel bitches showing excessive growth of the undercoat due to spaying; test: coat quality in spayed cocker spaniel bitches with excessive growth of the undercoat; format: in vivo, dog; conditions: 5 mg slow release s.c. implant
Description: Two cocker spaniel bitches belonging to the same owner were showing excessive growth of the undercoat due to spaying. […] Both dogs were first clinically examined and thereafter a GnRH analogue (Deslorelin) in a dosage of 5 mg, in slow release form, was subcutaneously implanted between the shoulder blades.

[5] = test system: perimenopausal person with urge incontinence and hotflushes; test: treatment of a perimenopausal person with urge incontinence and hotflushes; format: in vivo, human; conditions: 3.75 mg; one person
[6] = 11.25 mg slow release s.c. implant, with PPA

With `CCNC(=O)[C@@H]1CCCN1C(=O)[C@H](CCCNC(=N)N)NC(=O)[C@H](CC(C)C)NC(=O)[C@@H](CC(C)C)NC(=O)[C@H](Cc1ccc(O)cc1)NC(=O)[C@H](CO)NC(=O)[C@H](Cc1c[nH]c2ccccc12)NC(=O)[C@H](Cc1c[nH]cn1)NC(=O)[C@@H]1CCC(=O)N1` [Leuprorelinacetate, Leuprolid acetate] the “Duration of effect after treatment” value [1, 6] was over 64 days, the Effect on incontinence [1, 6] was 100% and the “Duration of effect after treatment” value ([1]; 11.25 mg slow release s.c. implant, without PPA) was 0 days. The “Duration of effect after treatment” value ([1]; 11.25 mg slow release s.c. implant, without PPA, listed as Leuprorelin acetate) was over 14 days, the “dogs that became continent” value ([2]; blinded portion, 5 weeks after treatment, with short course of phenylpropanolamine, placebo 1 of 10) was 3 to 8 dogs and the “dogs considered not to have improved” value ([2]; overall, of 15 dogs treated) was 1 dog. The “dogs that became continent” value ([2]; overall, of 15 dogs treated, after discontinuation of phenylpropanolamine) was 6 dogs, the dogs that improved ([2]; overall, of the remaining dogs, after discontinuation of phenylpropanolamine) was 9 dogs and the “daily urine loss (pad test)” value [3] was 1 mL.
With Buserelin acetate [Buserelinacetate] the Side effects ([1]; 6.3 mg slow release s.c. implant) was “agile, more” and the “Duration of effect after treatment” value ([1]; 6.3 mg slow release s.c. implant, without PPA) was 44 days and 83 days.
For Deslorelin acetate [Deslorelinacetate], the Side effects ([1]; 6 mg slow release s.c. implant) was “agile, more; also recorded: More playfull”, the Effect on incontinence ([1]; 6 mg slow release s.c. implant, with PPA (phenylpropanolamine)) was 100% and the Side effects ([1]; 12 mg slow release s.c. implant) was “More self-; also recorded: More tolerant; also recorded: less aggres-”. The Effect on incontinence ([1]; 12 mg slow release s.c. implant, with PPA) was 80% and 100%, the coat quality ([4]; 5 weeks after the injection, both dogs) was “obvious amelioration of the coat quality” and the “signs of baby coat” value ([4]; 21 weeks after injection) was “no signes of “baby coat” were apparent anymore”.
For “Triptorelin acetate [Triptorelinacetate]”, the Effect on incontinence ([1]; 3.75 mg slow release s.c. implant, 36 kg bitch, dose too low) was “Not effec-”, the “Duration of effect after treatment” value ([1]; 3.75 mg slow release s.c. implant, dose too low) was 0 and the “period of improvement of both symptoms” value [5] was “about 4 weeks”. For the same molecule, the “urge incontinence and hotflushes, reported change” value [5] was “improved considerably”.

Source: patent publication US20090246209A1, “GNRH ANALOGUES FOR TREATMENT OF URINARY INCONTINENCE” (priority 2000, published 2009)
